From patent US20200283728A1, “MODIFIED T CELLS AND USES THEREOF” (MUSC FOUNDATION FOR RESEARCH DEVELOPMENT, priority 2017, published 2020) come the findings set out here.

The test system of test [1] is pmel-1 CD8^+ T cells. As to the kind of experiment: pmel-1 CD8+ T cells primed with AKTi or CAL-101 in culture: phenotype and expansion. Type of test: cell-based, mouse. Here is the method: (§1) Pmel-1 CD8^+ T cells were prepared from whole splenocytes activated using 1 μM hgp100 peptide+100 IU rhIL-2/mL. Starting 3 hours after initial activation, cells were treated with either DMSO vehicle, AKT inhibitor VIII (AKTi) (Calbiochem), or CAL-101 (Selleckchem) at indicated doses. Cells were supplemented with culture media containing 100 IU rhIL-2/mL and vehicle or drug when expanded. Human Normal Donor Peripheral T cells: Polyclonal CD3^+ T cells were prepared via negative bead selection (Dynal) from peripheral blood lymphocytes and activated using CD3/CD28 beads (Gibco) with 100 IU rhIL-2/mL DMSO vehicle, 1 μM or 10 μM AKTi or CAL-101 throughout culture as indicated. On day 2 of culture, T cells were engineered to be mesothelin specific via lentiviral transduction with an anti-mesothelin chimeric antigen receptor (CAR) which contained a single-chain variable fragment (scFv) fusion protein specific for mesothelin and linked to the T cell receptor ζ (TCRζ) signaling domain and 4-1BB as described previously (Carpenito et al., 2009) (gifts from the June lab).
(§2) Surface staining of Th17 cells was performed with anti-CD4-APCCy7, anti-Vβ14-FITC (BD Biosciences) anti-CD62L-APC, anti-CD44-PerCPCy5.5, anti-CCR6-PE, anti-CD69-PECy7, anti-CCR7-PE, anti-CD27-PE, anti-CD28-PerCPCy5.5, anti-ICOS-PE and anti-CD25-PECy7/FITC (BioLegend) and viability stain (Invitrogen) on day 8. For all intracellular staining of cytokines (anti-IL-17 PerCPCy5.5, anti-IFN-γ-v450, anti-IL-2-FITC, anti-IL-21-APC, anti-IL-22-PE, anti-TNF-α-FITC; BioLegend) and transcription factors (anti-RORγt-APC, anti-cMaf-PerCPCy5.5, anti-STAT-3-PE, anti-FoxP3-FITC/PE, anti-T-bet-v450; eBiosciences), cells were stimulated for 4-5 h with 50 ng/mL PMA and 750 ng/mL ionomycin (Sigma-Aldrich). Additional antibodies used include: CD127-PECy7 clone A019D5, CD25-APCCy7 clone BC96, CD4-APCCy7 OKT4, CD45RO-APC clone UCHL1, CD62L-FITC clone DREG-56, CD8-PerCPCy5.5 clone SKI, TIM3-PE clone F38-2E2 (biolegend); CCR7-PECy7 clone CCR7, CD8-V450 clone RPA-T8, PD1-FITC clone M1H4, (BD Biosciences). Antibodies used for mouse cell analysis: CD127-PE/V450 clone A7R34, CD25-FITC clone 7D4, CD44-PerCPCy5.5/FITC clone IM7, CD69-PECy7 clone HI.2F3, CD8-PerCPCy5.5 clone 53-6.7, CD8-PECy7 clone YTS156.7.7, PD1-PerCPCy5.5 clone 29F.1A12 V[…]13-PE/APC clone MR12-3/MR12-4 (Biolegend), CD4-APCCy7 clone RM4-5, CD62L-APC clone MEL-14, KLRG1-APC/V450 clone 2F1 (BD). After 1 h, Monensin (BioLegend) was added per manufacturer's instructions. After surface staining, intracellular staining for cytokines and transcription factors was performed using Fixation and Permeabilization buffers (BioLegend) and Foxp3 Staining Buffers (eBioscience), respectively. Flow cytometry acquisition was performed on a FACSVerse or Accuri (BD Bioscience). Data were analyzed with FlowJo software (TreeStar). For experiments with sorted cells, CD8^+Vb13^+ T cells were sorted from pmel-1 cultures using Dynabeads untouched mouse CD8^+ T cell kit (Invitrogen) and a FACSAria cell sorting machine (BD Biosciences).

In test [2] the test system is human CD3^+ T cells. The test can be described thus: Human CD3+ T cells expanded with CD3/CD28 beads under CAL-101 or AKTi. Type of test: cell-based. On the procedure: as §1, §2
Test [3] has as its system human T cells. As to the kind of experiment: RNA sequencing of CAL-101 or AKTi treated human T cells. Type of test: cell-based. As to conditions: vs vehicle. Here is the method: Library preparation: mRNA libraries were prepared in triplicate from each donor using the TruSeq RNA V2 kit(Illumina). Cleaved RNA fragments were copied into first strand cDNA then underwent second strand cDNA synthesis. End repair of cDNA fragments, single ‘A’ base addition and ligation to the adapter followed. The product was then purified and enriched with PCR to create the final cDNA library. Transcriptome sequencing: cDNA libraries were clonally clustered onto the sequencing flow cell using the c-BOT (Illumina) Cluster Generation Station and Hiseq Rapid Paired-End Cluster Kit v2 (Illumina). Clustered flow cells were sequenced on the Illumina HiSeq2500 Sequencing System using the Hiseq Rapid SBS Kit V2 (Illumina). Analysis: Differential gene expression analysis contrasting the factors representing different treatment protocols (CAL101 vs Vehicle; or AKTi vs Vehicle) was performed by running kallisto on the raw paired-end RNA sequencing data (in FASTQ format) to estimate transcript-level read counts based on Ensembl GRCh37 cDNA assembly for each sample (NCBI GEO database Accession Number: GSE101497). Estimated transcript-level counts were aggregated across official gene symbols using the tximport package with mapping provided by the biomaRt utility. […]

Test [4] concerns human T cells. As to the kind of experiment: Western blot of nuclear β-catenin, Lef1, Tcf7 in human T cells. Type of test: cell-based. Here is the method: (§3) Nuclear and cytoplasmic protein were isolated by lysis using Nuclear and Cytoplasmic Extraction Reagent with Protease&Phosphatase Inhibitor Cocktail (ThermoScientific). Protein concentration was quantified using […] (ThermoScientific) according to the manufacturer's instructions. 10 to 30 μg of total protein was separated on a Mini-PROTEAN TGX, Any kD™ gel, followed by transfer onto PVDF membrane (Bio-Rad). The membranes were blocked with 5% BSA in TBS buffer containing 0.5% Tween20. The membranes were then incubated overnight at 4° C. with the primary antibodies to β-catenin (BD Bioscience), p110δ, Tcf7 (Abcam), RORγt (Affymetrix) phospho-Akt, total-Akt, STAT-3, Histone-3, Lef1 (abcam), and GAPDH (Cell Signaling) at the concentration recommended by manufactures. Subsequently, membranes were washed and incubated for 1 h at room temperature with (HRP)-conjugated goat antibodies to mouse or rabbit IgG (Cell Signaling). For detection of protein, chemiluminescence method was performed using Western ECL Blotting Substrate (Bio-Rad) followed by X-ray film-based imaging method (ThermoScientific). Quantification of optical density performed using Fiji analysis software (NIH).

Test [5] relates to ICOS-activated Th17 cells. The test can be described thus: Transcription factor expression (RORγt, cMaf, STAT-3) in ICOS-activated Th17 cells. Format: cell-based, mouse. Particulars: day 8. On the procedure:
(§4) Expansion of Th17 cells with Wnt/β-catenin and PI3K inhibitors in vitro: TRP-1 splenocytes were activated with irradiated (10Gy) C57BL/6 splenocytes pulsed with TRP-1 peptide (1 μM) added at a 5:1 ratio in 24-well plates (1 mL media containing 1.5×10^6 cells/well). TRP-1 splenocytes were co-stimulated with soluble ICOS agonist (Clone 398.4A, BioLegend) and polarized toward Th17 phenotype as describe above. For in vitro expansion from day 0 of culture 10 μM Ly294002 (Cayman Chemical) or 10 μM CAL-101 (Selleckchem) and/or 60 μM indomethacin (Sigma-Aldrich) was added. Also dimethylosulfoxide 0.01% (Sigma-Aldrich) was added as a control. Th17 cultures were also supplemented with hrIL-2 (100 IU/mL) and rmIL-23 ([…]; R&D). Medium, including cytokines and inhibitors was refreshed every 2-3 days.
as §3, with “Subsequently, membranes were washed and incubated for 1 h at room temperature with (HRP)-conjugated goat antibodies to mouse or rabbit IgG (Cell Signaling). For detection of protein, chemiluminescence method was performed using Western ECL Blotting Substrate (Bio-Rad) followed by X-ray film-based imaging method (ThermoScientific).” left out
Surface staining of Th17 cells was performed with anti-CD4-APCCy7, anti-Vβ14-FITC (BD Biosciences) anti-CD62L-APC, anti-CD44-PerCPCy5.5, anti-CCR6-PE, anti-CD69-PECy7, anti-CCR7-PE, anti-CD27-PE, anti-CD28-PerCPCy5.5, anti-ICOS-PE and anti-CD25-PECy7/FITC (BioLegend) and viability stain (Invitrogen) on day 8. […] Data were analyzed with FlowJo software (TreeStar). […]

Test [6] relates to ICOS-activated Th17 cells. The test can be described thus: Cytokine production of ICOS-stimulated TRP-1 Th17 cells expanded with inhibitors (intracellular FACS). Type of test: cell-based, mouse. On the procedure: as §4, §2
In test [7] the test system is ICOS-activated Th17 cells. The test can be described thus: Memory and regulatory phenotype of ICOS-stimulated Th17 cells expanded with inhibitors (flow cytometry). Format: cell-based, mouse. On the procedure: as §4
Surface staining of Th17 cells was performed with anti-CD4-APCCy7, anti-Vβ14-FITC (BD Biosciences) anti-CD62L-APC, anti-CD44-PerCPCy5.5, anti-CCR6-PE, anti-CD69-PECy7, anti-CCR7-PE, anti-CD27-PE, anti-CD28-PerCPCy5.5, anti-ICOS-PE and anti-CD25-PECy7/FITC (BioLegend) and viability stain (Invitrogen) on day 8. For all intracellular staining of cytokines (anti-IL-17 PerCPCy5.5, anti-IFN-γ-v450, anti-IL-2-FITC, anti-IL-21-APC, anti-IL-22-PE, anti-TNF-α-FITC; BioLegend) and transcription factors (anti-RORγt-APC, anti-cMaf-PerCPCy5.5, anti-STAT-3-PE, anti-FoxP3-FITC/PE, anti-T-bet-v450; eBiosciences), cells were stimulated for 4-5 h with 50 ng/mL PMA and 750 ng/mL ionomycin (Sigma-Aldrich). Additional antibodies used include: CD127-PECy7 clone A019D5, CD25-APCCy7 clone BC96, CD4-APCCy7 OKT4, CD45RO-APC clone UCHL1, CD62L-FITC clone DREG-56, CD8-PerCPCy5.5 clone SKI, TIM3-PE clone F38-2E2 (biolegend); CCR7-PECy7 clone CCR7, CD8-V450 clone RPA-T8, PD1-FITC clone M1H4, (BD Biosciences). […] Data were analyzed with FlowJo software (TreeStar). […]

Test [8] relates to Wnt/β-catenin pathway. As to the kind of experiment: Wnt/β-catenin pathway expression in Th17 cells (Western blot, real-time PCR). Type of test: cell-based, mouse. Particulars: re-stimulation in vitro; compared to control Th17 cells. Here is the method:
Total RNA isolation was performed using the Trizol method (Life Technologies) according to the manufacturer's procedure. RNA quantity and purity was assessed using a NanoDrop ND-1000. 1 μg total RNA was transcribed with Transcriptor First Strand cDNA Synthesis Kit (Roche). qReal-time PCR was performed on LightCycler480 machine following manufacturer's protocols (Roche). Probes utilized include Rorc, IL-17, Cmaf IL-21, Cpt-1a, Tcf-7, Lef-1, Cnnb1. All probes are commercially available (ABI). Relative gene expression was determined by the comparative CT method (45). β-actin was used as housekeeping gene.
as §3

[9] abbreviates: 8 days of expansion, CAL-101 10 μM, Indo 60 μM, Ly294002 10 μM, vs un-treated Th17 cells.

With `O=c1[nH]c2ccccc2n1C1CCN(Cc2ccc(-c3nc4cc5[nH]cnc5cc4nc3-c3ccccc3)cc2)CC1` [AKTi], the “logarithmic expansion of mouse pmel-1 CD8+ T cells” value in test [1] (10 μM drug) is “neither 10 μM AKTi or 10 μM CAL-101 impaired”. Further, in test [1] (5 days of culture), the CD69 expression entry is reported as “decreased”. Also, the “cells expressing CD62L” value in test [1] (5 days of culture, vehicle 65%) is “nearly all”. In addition, in test [1] (in culture), the CD25 expression result is given as “slightly reduced” and the CD127 expression result is “substantially elevated”. For the same compound, in test [2], the CD25 expression entry is reported as “did not impact” and the CD45RO levels result is “similar”. In test [2] (10 μM drug, 8 days), the “growth of human T cells” value is listed as “dramatically inhibited growth”. The CD62L expression result in test [2] (over vehicle) is recorded as “slightly increased”. For the same compound, the TIM3 expression result in test [2] (post-activation, vs untreated T cells) was “prevented the up-regulation”. The “effector transcripts Fos, JunB, Gzmb, Ifng” value in test [3] was “down-regulated”. The “nuclear Lef1 protein” value in test [4] is given as “slightly higher, though not statistically significant”. Also, the “nuclear Tcf7 protein” value in test [4] (over vehicle) is “did not”.

In test [5] (control 62.9±4.8%), `CC[C@H](Nc1ncnc2[nH]cnc12)c1nc2cccc(F)c2c(=O)n1-c1ccccc1` [CAL-101] showed a cMaf expression of 42.5±3.9%. Moreover, in test [5] (control 65.5±9.5%), the RORγt expression was found to be 21.9±8.1%. Moreover, the STAT-3 expression in test [5] (control approximately 83%) worked out at 13.8±5.2%. The “CD62L+ cells before transfer” value in test [1] (sort experiment, bulk vehicle 37%) is 97%.

`O=c1cc(N2CCOCC2)oc2c(-c3ccccc3)cccc12` [Ly294002, 2-(4-morpholinyl)-8-phenyl-4H-1-benzopyran-4-one]: in test [6] (setting [9]), the IFN-γ production result is recorded as “suppress” and the IL-17A production result was “suppress”. Moreover, in test [6] (compared with the results for CAL-101 or Indo plus CAL-101), the “cytokine secretion pattern overall” value was “Similarly results were obtained”. Also, in test [7] (cultured 8 days and upon secondary stimulation in vitro), the “FoxP3 and CD25 expression” value is “expressed more FoxP3 and CD25”. Besides, in test [7] (day 8 in vitro), the “central memory phenotype (CD44^highCD62L^high)” value is on record as “also supported generation of TCM17 cells”. Further, in test [8], the “Tcf7 protein level after re-stimulation” value is “could not replace the CAL-101 effect on Tcf7 overexpression”.
